Laboratory results published in patent US20250186451A1, “METHODS OF TREATING CANCER WITH IAP ANTAGONIST COMPOUNDS AND COMBINATION THERAPIES” (Otsuka Pharmaceutical Co., Ltd., priority 2022, published 2025).
“Also recorded” adds a separate entry of the source. Where two headings read alike, the source gives them in different places.

Assays:
CCRF-CEM cells = assay: Flow cytometry: annexin V/DAPI apoptosis and bead-based absolute cell count, CCRF-CEM; set-up: species or system human
Method: (§2) Cells were re-suspended in PBS containing CountBright beads (Invitrogen #C36950) to allow for measurement of the absolute cell number. Half-maximal inhibitory concentrations (IC50) was calculated using CalcuSyn software (BIOSOFT, Cambridge, UK).
(§3) Combination index (CI) and IC50 were determined using Calcusyn (BIOSOFT, Cambridge, UK).

MOLT16 cell line = assay: Flow cytometry: annexin V/DAPI apoptosis and bead-based absolute cell count, MOLT16; set-up: species or system human; conditions: MOLT16, single agent, 5 days
Method: as §2, §3

SUPT11 cells = assay: Flow cytometry: annexin V/DAPI apoptosis and bead-based absolute cell count, SUPT11
Method: as §2, §3

LOUCY cells [1] = assay: Flow cytometry: annexin V/DAPI apoptosis and bead-based absolute cell count, LOUCY; set-up: species or system human; conditions: for IC50: Homo sapiens
Method: (§1) Combination index and IC50 were determined using Calcusyn (BIOSOFT, Cambridge, UK).

LOUCY cells [2] = assay: Western blot analysis in LOUCY cells; type: cell-based, human; conditions: combination = Compound I + Compound II
Text: Membranes were probed with specific antibodies.

ALL-SIL cells = assay: Flow cytometry: annexin V/DAPI apoptosis and bead-based absolute cell count, ALL-SIL; set-up: species or system human
Method: as §1

JURKAT cells = assay: Flow cytometry: annexin V/DAPI apoptosis and bead-based absolute cell count, JURKAT; conditions: single agent, 5 days
Method: as §2

MOLT4 cells = assay: Flow cytometry: annexin V/DAPI apoptosis and bead-based absolute cell count, MOLT4; conditions: MOLT4, single agent, 5 days
Method: as §2

PF382 cells = assay: Flow cytometry: annexin V/DAPI apoptosis and bead-based absolute cell count, PF382; set-up: species or system human
Method: as §2, §3

[3] = system: leukemia initiating cells (LICs, CD45+, CD7+, CD19-, CD34+)
[4] = system: PDX-derived cells (CD45+ bulk)

In the case of C[C@@H]1CN(CC(=O)N2CC(C)(C)c3nc(CO)c(Cc4ccc(F)cc4)cc32)[C@@H](CN2CCOC[C@H]2C)CN1 [Compound I, 1-(6-(4-fluorobenzyl)-5-(hydroxymethyl)-3,3-dimethyl-2,3-dihydro-1H-pyrrolo [3,2-b]pyridin-1-yl)-2-((2R,5R)-5-methyl-2-(((R)-3-methylmorpholino)methyl)piperazin-1-yl)ethan-1-one], the “sensitivity to Compound I” value (CCRF-CEM cells; CCRF-CEM, single agent, 5 days) is reported as “moderate sensitivity”, the IC50 (CCRF-CEM cells; Homo sapiens, CCRF-CEM, 120 h) is reported as 17800 nM and the “sensitivity to Compound I” value (MOLT16 cell line) is reported as “least sensitive”. For the same compound, the IC50 (SUPT11 cells; Homo sapiens, SUPT11, 120 h, Table 1, SUPT11, Compound I single agent, 5 days) was 309 nM, the IC50 (SUPT11 cells; Homo sapiens, SUPT11, Table 2, SUPT11 cells, Combination = DEX + Compound I 1:1) was 11.7 nM and the IC50 (SUPT11 cells; Table 1, SUPT11, Compound I single agent, 5 days) was 310 nM. The IC50 (LOUCY cells [1]; 120 h, Table 1, Loucy, Compound I single agent, 5 days) was 190 nM, the IC50 (LOUCY cells [1]; Table 4, LOUCY cells, Combination = Compound II:Compound I 1:10) was 190 nM and the “PARP expression (Western blot)” value (LOUCY cells [2]) was “decreased expression”. For the same compound, the “cIAP2 expression (Western blot)” value (LOUCY cells [2]) was “decreased expression; also recorded: decrease”, the “cleaved caspase 7 (Western blot)” value (LOUCY cells [2]) was “increase” and the “sensitivity to Compound I” value (ALL-SIL cells; ALL-SIL, single agent, 5 days) was “moderate sensitivity”. The IC50 (ALL-SIL cells; Homo sapiens, 120 h) was 11800 nM, the “sensitivity to Compound I” value (JURKAT cells) was “least sensitive” and the “sensitivity to Compound I” value (MOLT4 cells) was “least sensitive”. The “sensitivity to Compound I” value (PF382 cells; PF382, single agent, 5 days) was “least sensitive” and the apoptosis induction (PF382 cells; PF382, single agents or combination Compound I:DEX 1:1) was “no apoptosis induction”.

With C[C@@H]1C[C@H]2[C@@H]3CCC4=CC(=O)C=C[C@]4(C)[C@@]3(F)[C@@H](O)C[C@]2(C)[C@@]1(O)C(=O)CO [DEX, dexamethasone, reference compound] the cell death (CCRF-CEM cells; CCRF-CEM (DEX-resistant), combination = Compound I:DEX 1:1) was 20+3%, the EC50 (SUPT11 cells; Homo sapiens, SUPT11, read-out: ED50, SUPT11 cells, DEX treatment alone) was ~2000 nM and the EC50 (SUPT11 cells; Homo sapiens, SUPT11, read-out: ED50, Table 2, SUPT11 cells, Combination = DEX + Compound I 1:1) was 2000 nM. The cytotoxic effect [3] was 62±2% and the cytotoxic effect [4] was 58±2%.

CC1(C)CCC(CN2CCN(c3ccc(C(=O)NS(=O)(=O)c4ccc(NCC5CCOCC5)c([N+](=O)[O-])c4)c(Oc4cnc5[nH]ccc5c4)c3)CC2)=C(c2ccc(Cl)cc2)C1 [Compound II, 2-((1H-pyrrolo[2,3-b]pyridin-5-yl)oxy)-4-(4-((4′-chloro-5,5-dimethyl-3,4,5,6-tetrahydro-[1,1′-biphenyl]-2-yl)methyl)piperazin-1-yl)-N-((3-nitro-4-(((tetrahydro-2H-pyran-4-yl)methyl)amino)phenyl)sulfonyl)benzamide, reference compound] was tested, and the cell death (LOUCY cells [1]; LOUCY, combination = Compound II:Compound I 1:10) was 27+0.9%.
